In US9051325B2, “Bicyclic [5,6] imidazo pyrimodone compounds for use in the treatment of diseases or conditions mediated by Lp-PLA2” (GlaxoSmithKline Intellectual Property Development Limited, priority 2013, dated 2015):

Legend:
[1] = biological target: T1, recombinant human Lp-PLA2 (Homo sapiens, UniProt Q13093); experiment: Recombinant human Lp-PLA2 assay (rhLp-PLA2, PED6 assay); type: biochemical; details: lower bounds; read-out: pIC50 values in the PED6 assay (converted)
T1 sequence (Q13093 22-441): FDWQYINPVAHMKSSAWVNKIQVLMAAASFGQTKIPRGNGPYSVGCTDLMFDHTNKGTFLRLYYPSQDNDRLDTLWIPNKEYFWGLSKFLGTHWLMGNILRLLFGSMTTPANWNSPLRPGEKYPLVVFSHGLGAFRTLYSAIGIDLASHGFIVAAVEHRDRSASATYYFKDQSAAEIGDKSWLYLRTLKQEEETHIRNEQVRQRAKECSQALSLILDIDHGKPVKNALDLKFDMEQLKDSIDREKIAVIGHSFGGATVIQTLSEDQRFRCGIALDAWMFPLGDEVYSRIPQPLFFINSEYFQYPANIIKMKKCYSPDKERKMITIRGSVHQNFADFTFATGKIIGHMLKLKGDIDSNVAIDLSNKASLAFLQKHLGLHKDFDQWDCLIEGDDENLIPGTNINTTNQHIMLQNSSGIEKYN
Text: (1) Recombinant Human Lp-PLA2 Assay (rhLp-PLA2) (Also Referred to as “PED6” Assay)
N-((6-(2,4-dinitrophenyl)amino)-hexanoyl)-2-(4,4-difluoro-5,7-dimethyl-4-bora-3a,4a-diaza-s-indacene-3-pentanoyl)-1-hexadecanoyl-sn-glycero-3-phosphoethanolamine, triethylammonium salt (PED6) is a commercially available fluorescently-labeled phospholipid, which is commercially available from Invitrogene and Molecular Probes. There is a quenching […] and a Bodipy fluorescein (FL) group in the sn2 position. Upon cleavage with Lp-PLA2, the Bodipy FL group is liberated and then may result in an increase in fluorescence. Inhibitors of Lp-PLA2 therefore prevent this cleavage and no fluorescent increase is observed.
The PED6 assay was run as an unquenched 10 μL assay. The source plate containing the compounds to be tested was prepared by making 1:3 (by volume) serial dilution of the compounds within DMSO on 384-well microplate. Then, 0.01 μL of the compounds on compound source plate were transferred into 384 well Greiner 784076 (black) plates using ECHO liquid dispenser. 5 μL of recombinant human Lp-PLA2 enzyme (4 nM (or […]) rhLp-PLA2 in assay buffer of 50 mM HEPES, pH 7.4, 150 mM NaCl, 1 mM CHAPS) was added to each well of the plate. Plates were centrifuged for 10 sec at 500 rpm. After 30 minutes preincubation, 5 μL of substrate ([…] PED6 [from 5 mM DMSO stock] in assay buffer of 50 mM HEPES, pH 7.4, 150 mM NaCl, 1 mM CHAPS) was added to 384 well Greiner 784076 (black) plates. Plates were centrifuged for 10 sec at 500 rpm. The plate was covered to protect it from light and incubated for 20 min at room temperature. The plates were read for fluorescence intensity at ex: 480/em: 540 using ViewLux microplate imager for Envision spectrofluoroimeters pIC50 data, curve and QC analysis was conducted by using XL fit module in Excel.

Lp-PLA2 in human plasma = biological target: T2, Lp-PLA2 in human plasma (Homo sapiens, UniProt Q13093); experiment: Lp-PLA2 human plasma assay (Thio-PAF assay); type: biochemical; details: pooled human plasma; lower bounds; read-out: pIC50 values in the thio-PAF assay (converted)
T2 construct: from tissue; host or cells: pooled human plasma
T2 sequence (Q13093 22-441): T1 sequence (Q13093 22-441)
Text: (3) Lipoprotein-Associated Phospholipase A2 (Lp-PLA2) Human Plasma Assay (Also Referred to as “Thio-PAF assay”)
The human plasma assay utilizes a thioester analog of PAF (phosphatidylcholine), where hydrolysis yields to the formation of a phospholipid containing a free thiol group. The amount of thiol is quantitated continuously by reacting with CPM (7-diethylamino-3-(4′-maleimidylphenyl)-4-methylcoumarin), a maleimide which increases in fluoresence after Michael addition of thiols. This assay may detect the activity of Lp-PLA2 in human plasma, as determined by specific inhibition by Lp-PLA2 inhibitors.
The thio-PAF assay was run as a quenched 15 μL assay. Compounds source plate was prepared by making 1:3 (by volume) serial dilution of the compounds into pure DMSO on 384-well microplate. 0.01 μL of compounds on compound source plate were transferred to 384 well Greiner 784076 (black) low-volume plates by ECHO liquid dispenser. 8 μL pooled human plasma, which was previously aliquoted and frozen, was added. Plates were centrifuged for 10 sec at 500 rpm. After 30 minutes preincubation, 2 μL of substrate solution comprising 2.5 mM 2-thio-PAF [from ethanol stock], 32 μM CPM [from a DMSO stock] and 3.2 mM NEM (N-ethylmaleimide) [made fresh daily in DMSO] in assay buffer of 50 mM HEPES, pH 7.4, 150 mM NaCl, 1 mM CHAPS was added to 384 well Greiner 784076 (black) low-volume plates by BRAVO liquid handling station. After 2 mins, reaction was quenched with 5 μL of 5% aqueous trifluoroacetic acid (TFA). Plates were covered to protect from light and incubated for 40 min at room temperature. Plates were read at ex: 380/em: 485 using-Envision microplate reader. PIC50 data, curve and QC analysis were conducted by using XLFit module in Excel.

Row | IC50 [1] [nM] | IC50 (Lp-PLA2 in human plasma) [nM] | Structure (SMILES)
1 | ≤ 1 | – | C[C@H]1Cn2c(cc(OCc3ccc(Oc4ccc(C(F)(F)F)nc4)c(F)c3)nc2=O)N1C [Example E6, (S)-7-((3-fluoro-4-((6-(trifluoromethyl)pyridin-3-yl)oxy)benzyl)oxy)-1,2-dimethyl-2,3-dihydroimidazo[1,2-c]pyrimidin-5(1H)-one]
2 | ≤ 10 | – | C[C@H]1Cn2c(cc(OCc3ccc(F)c(F)c3)nc2=O)N1 [Example E9, (S)-7-((3,4-difluorobenzyl)oxy)-2-methyl-2,3-dihydroimidazo[1,2-c]pyrimidin-5(1H)-one]
3 | ≤ 10 | – | O=c1nc(OCc2ccc(Oc3ccc(Cl)c(C(F)(F)F)c3)cc2)cc2n1CCN2C1CC1 [Example E17, 7-((4-(4-chloro-3-(trifluoromethyl)phenoxy)benzyl)oxy)-1-cyclopropyl-2,3-dihydroimidazo[1,2-c]pyrimidin-5(1H)-one]
4 | ≤ 10 | – | CN1c2cc(OCc3cccc(Cl)c3)nc(=O)n2CC1(C)C [Example E21, 7-((3-chlorobenzyl)oxy)-1,2,2-trimethyl-2,3-dihydroimidazo[1,2-c]pyrimidin-5(1H)-one]
5 | ≤ 10 | – | [2H]C([2H])(Oc1cc2n(c(=O)n1)C[C@H](C)N2C)c1ccc(F)c(F)c1 [Example E22, (S)-7-(dideutero(3,4-difluorophenyl)methoxy)-1,2-dimethyl-2,3-dihydroimidazo[1,2-c]pyrimidin-5(1H)-one]
6 | ≤ 10 | – | C[C@H]1Cn2c(cc(OCc3ccc(Oc4cncc(C#N)c4)c(F)c3)nc2=O)N1C [Example E24, (S)-5-(4-(((1,2-dimethyl-5-oxo-1,2,3,5-tetrahydroimidazo[1,2-c]pyrimidin-7-yl)ox-y)methyl)-2-fluorophenoxy)nicotinonitrile]
7 | ≤ 10 | – | C[C@H]1Cn2c(cc(OCc3ccc(Oc4cccc(F)c4)c(F)c3)nc2=O)N1C [Example E27, (S)-7-((3-fluoro-4-(3-fluorophenoxy)benzyl)oxy)-1,2-dimethyl-2,3-dihydroimidazo-[1,2-c]pyrimidin-5(1H)-one]
8 | ≤ 10 | – | C[C@H]1Cn2c(cc(OCc3ccc(Oc4cccc(F)c4)c(F)c3)nc2=O)N1 [Example E28, (S)-7-((3-fluoro-4-(3-fluorophenoxy)benzyl)oxy)-2-methyl-2,3-dihydroimidazo[1,2-c]pyrimidin-5(1H)-one]
9 | – | ≤ 100 | C[C@@H]1Cn2c(cc(OCc3cccc(C#N)c3)nc2=O)N1C [Example E33, (R)-3-(((1,2-dimethyl-5-oxo-1,2,3,5-tetrahydroimidazo[1,2-c]pyrimidin-7-yl)oxy)methyl)benzonitrile]
10 | ≤ 10 | – | CN1c2cc(OCc3ccc(Cl)c(F)c3)nc(=O)n2CC1(C)C [Example E36, 7-((4-chloro-3-fluorobenzyl)oxy)-1,2,2-trimethyl-2,3-dihydroimidazo[1,2-c]pyrimidin-5(1H)-one]
11 | – | ≤ 100 | CN1c2cc(OCCC3CCCC3)nc(=O)n2CC1(C)C [Example E52, 7-(2-cyclopentylethoxy)-1,2,2-trimethyl-2,3-dihydroimidazo[1,2-c]pyrimidin-5(1H)-one]
12 | ≤ 1 | – | C[C@H]1Cn2c(cc(OCc3ccc(Oc4ccc(F)cc4)c(C#N)c3)nc2=O)N1C [Example E57, (S)-5-(((1,2-dimethyl-5-oxo-1,2,3,5-tetrahydroimidazo[1,2-c]pyrimidin-7-yl)oxy)methyl)-2-(4-fluorophenoxy)benzonitrile]
13 | ≤ 1 | – | C[C@H]1Cn2c(cc(OCc3ccc(Oc4ccc(C(F)(F)F)nc4)c(F)c3)nc2=O)N1 [Example E62, (S)-7-((3-fluoro-4-((6-(trifluoromethyl)pyridin-3-yl)oxy)benzyl)oxy)-2-methyl-2,3-dihydroimidazo[1,2-c]pyrimidin-5(1H)-one]
14 | – | ≤ 100 | C[C@H]1Cn2c(cc(OCc3cccc(C#N)c3)nc2=O)N1C [Example E72, (S)-3-(((1,2-dimethyl-5-oxo-1,2,3,5-tetrahydroimidazo[1,2-c]pyrimidin-7-yl)oxy)methyl)benzonitrile]
15 | ≤ 1 | – | C[C@H]1Cn2c(cc(OCc3cc(F)c(Oc4cccc(F)c4)c(F)c3)nc2=O)N1C [Example E76, (S)-7-((3,5-difluoro-4-(3-fluorophenoxy)benzyl)oxy)-1,2-dimethyl-2,3-dihydroimidazo[1,2-c]pyrimidin-5(1H)-one]
16 | – | ≤ 100 | C[C@H]1Cn2c(cc(OCc3cc(F)cc(F)c3)nc2=O)N1 [Example E85, (S)-7-((3,5-difluorobenzyl)oxy)-2-methyl-2,3-dihydroimidazo[1,2-c]pyrimidin-5(1H)-one]
17 | ≤ 10 | – | [2H]C([2H])(Oc1cc2n(c(=O)n1)C[C@H](C)N2C)c1cc(F)c(F)c(F)c1 [Example E86, (S)-7-(dideutero(3,4,5-trifluorophenyl)methoxy)-1,2-dimethyl-2,3-dihydroimidazo[1,2-c]pyrimidin-5(1H)-one]
18 | ≤ 10 | – | CN1c2cc(OCc3cc(F)ccc3F)nc(=O)n2CC1(C)C [Example E92, 7-((2,5-difluorobenzyl)oxy)-1,2,2-trimethyl-2,3-dihydroimidazo[1,2-c]pyrimidin-5(1H)-one]
19 | ≤ 10 | – | C[C@H]1Cn2c(cc(OCc3ccc(Oc4ccc(F)cc4)c(F)c3)nc2=O)N1C [Example E94, (S)-7-((3-fluoro-4-(4-fluorophenoxy)benzyl)oxy)-1,2-dimethyl-2,3-dihydroimidazo[1,2-c]pyrimidin-5(1H)-one]
20 | – | ≤ 100 | C[C@H]1Cn2c(cc(OCc3cccc(C#N)c3)nc2=O)N1 [Example E109, (S)-3-(((2-methyl-5-oxo-1,2,3,5-tetrahydroimidazo[1,2-c]pyrimidin-7-yl)oxy)methyl)benzonitrile]
21 | ≤ 10 | – | N#Cc1cc(COc2cc3n(c(=O)n2)CCN3C2CC2)ccc1Oc1ccc(F)c(F)c1 [Example E118, 5-(((1-cyclopropyl-5-oxo-1,2,3,5-tetrahydroimidazo[1,2-c]pyrimidin-7-yl)oxy)methyl)-2-(3,4-difluorophenoxy)benzonitrile]
22 | ≤ 10 | – | CN1c2cc(OCc3cc(F)cc(Cl)c3)nc(=O)n2CC1(C)C [Example E125, 7-((3-chloro-5-fluorobenzyl)oxy)-1,2,2-trimethyl-2,3-dihydroimidazo[1,2-c]pyrimidin-5(1H)-one]
23 | ≤ 1 | – | C[C@H]1Cn2c(cc(OCc3cc(F)c(Oc4ccc(F)c(F)c4)c(F)c3)nc2=O)N1C [Example E126, (S)-7-((4-(3,4-difluorophenoxy)-3,5-difluorobenzyl)oxy)-1,2-dimethyl-2,3-dihydroimidazo[1,2-c]pyrimidin-5(1H)-one]
24 | ≤ 10 | – | C[C@H]1Cn2c(cc(OCc3ccc(Oc4ccc(F)cc4)c(F)c3)nc2=O)N1 [Example E130, (S)-7-((3-fluoro-4-(4-fluorophenoxy)benzyl)oxy)-2-methyl-2,3-dihydroimidazo[1,2c]pyrimidin-5(1H)-one]
